According to patent US6143759A, “Tetrazoles” (BYK Gulden Lomberg Chemische Fabrik GmbH, priority 1997, dated 2000):
Where a name gives a salt, the structure may show the parent alone.

How the values were obtained:
[1] = biological target: T1, PDE3 (Homo sapiens, UniProt Q14432); experiment: Inhibition of PDE isoenzymes: PDE3 (cGMP-inhibited), homogenates of human blood platelets; type: biochemical; conditions: cAMP or cGMP as substrate, 0.5 μM, pH 7.4, 37° C., 15 min; for IC50: read-out: PDE3 -log IC50 (converted)
T1 construct: were investigated in homogenates of human blood platelets; from tissue; host or cells: homogenates of human blood platelets

[2] = biological target: PDE4; experiment: Inhibition of PDE isoenzymes: PDE4 (cAMP-specific), cytosol of human polymorphonuclear leukocytes, cAMP as substrate; type: biochemical; conditions: cytosol of human PMNL; 0.5 μM cAMP; motapizone (1 μM) present; pH 7.4, 37° C., 15 min

T1 sequence (Q14432 whole entry): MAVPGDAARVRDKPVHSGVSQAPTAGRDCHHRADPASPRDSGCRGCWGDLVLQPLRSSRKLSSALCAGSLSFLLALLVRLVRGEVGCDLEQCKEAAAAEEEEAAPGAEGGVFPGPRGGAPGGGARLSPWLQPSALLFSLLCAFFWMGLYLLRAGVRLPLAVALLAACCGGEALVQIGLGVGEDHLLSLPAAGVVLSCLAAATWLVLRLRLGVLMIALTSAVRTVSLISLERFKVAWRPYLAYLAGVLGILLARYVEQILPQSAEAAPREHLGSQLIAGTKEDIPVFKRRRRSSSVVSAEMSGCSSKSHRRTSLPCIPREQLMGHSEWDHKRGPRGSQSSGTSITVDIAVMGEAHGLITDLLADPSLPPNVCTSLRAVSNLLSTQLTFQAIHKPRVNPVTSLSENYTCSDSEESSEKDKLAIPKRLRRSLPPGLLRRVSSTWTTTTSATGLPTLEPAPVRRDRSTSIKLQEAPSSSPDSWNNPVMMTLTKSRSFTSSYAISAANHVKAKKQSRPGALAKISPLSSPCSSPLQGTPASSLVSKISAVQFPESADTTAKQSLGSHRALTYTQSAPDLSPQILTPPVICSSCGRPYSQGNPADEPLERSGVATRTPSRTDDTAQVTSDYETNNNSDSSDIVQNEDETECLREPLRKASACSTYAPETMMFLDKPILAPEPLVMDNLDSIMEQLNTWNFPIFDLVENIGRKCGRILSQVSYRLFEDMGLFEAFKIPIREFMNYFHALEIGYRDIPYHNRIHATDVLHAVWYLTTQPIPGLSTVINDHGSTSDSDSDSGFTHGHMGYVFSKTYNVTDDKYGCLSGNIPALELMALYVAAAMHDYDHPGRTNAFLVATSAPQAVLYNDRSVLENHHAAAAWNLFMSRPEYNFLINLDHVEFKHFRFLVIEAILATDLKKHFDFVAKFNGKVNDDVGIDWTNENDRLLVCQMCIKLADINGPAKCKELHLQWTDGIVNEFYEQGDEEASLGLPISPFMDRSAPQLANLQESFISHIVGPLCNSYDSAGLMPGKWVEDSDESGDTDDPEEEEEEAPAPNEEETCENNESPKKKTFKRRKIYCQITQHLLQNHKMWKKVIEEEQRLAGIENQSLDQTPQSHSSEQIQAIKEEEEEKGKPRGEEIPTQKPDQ

Compound | IC50 [1] [nM] | PDE4 -log IC50 [2] [mol/l] | PDE3 -log IC50 [1] [mol/l]
COc1cc2c(cc1OC)[C@@H]1CN(C)CC[C@@H]1N=C2c1ccc(-c2nn[nH]n2)cc1 (single isomer, unassigned) [Compound 1, (-)-cis-8,9-Dimethoxy-2-methyl-6-[4-(1H- and 2H-tetrazol-5-yl)phenyl]-1,2,3,4,4a,10b-hexahydrobenzo[c][1,6]naphthyridine] | 166 | 6.42 | 
CCn1nnc(-c2ccc(C3=N[C@H]4CCN(C)C[C@H]4c4cc(OC)c(OC)cc43)cc2)n1 (single isomer, unassigned) [Compound 2, (-)-cis-8,9-Dimethoxy-2-methyl-6-[4-(2H-2-ethyltetrazol-5-yl)phenyl]-1,2,3,4,4a,10b-hexahydrobenzo[c][1,6]naphthyridine hydrochloride] | 457 | 6.13 | 
CCOc1cc2c(cc1OCC)[C@@H]1CN(C)CC[C@@H]1N=C2c1ccc(-c2nnn(CC)n2)cc1 (single isomer, unassigned) [Compound 3, (-)-cis-8,9-Diethoxy-2-methyl-6-[4-(2H-2-ethyltetrazol-5-yl)phenyl]-1,2,3,4,4a,10b-hexahydrobenzo[c][1,6]naphthyridine hydrochloride] | 209 | 7.64 | 
COc1cc2c(cc1OC)[C@@H]1CN(C)CC[C@@H]1N=C2c1ccc(-c2nnn(C)n2)cc1 (single isomer, unassigned) [Compound 4, (-)-cis-8,9-Dimethoxy-2-methyl-6-[4-(2H-2-methyltetrazol-5-yl)phenyl]-1,2,3,4,4a,10b-hexahydrobenzo[c][1,6]naphthyridine] | 355 | 5.92 | 
CCOc1cc2c(cc1OCC)[C@@H]1CN(C)CC[C@@H]1N=C2c1ccc(-c2nnn(Cc3ccc(OC)cc3)n2)cc1 (single isomer, unassigned) [Compound 5, (-)-cis-8,9-Diethoxy-2-methyl-6-[[4-[2H-2-(4-methoxybenzyl)tetrazol-5-yl]-phenyl]]-1,2,3,4,4a,10b-hexahydrobenzo[c][1,6]naphthyridine hydrochloride] | 204 | 8.03 | 
CCOc1cc2c(cc1OCC)[C@@H]1CN(C)CC[C@@H]1N=C2c1ccc(-c2nnn(C)n2)cc1 (single isomer, unassigned) [Compound 6, (-)-cis-8,9-Diethoxy-2-methyl-6-[4-(2H-2-methyltetrazol-5-yl)phenyl]-1,2,3,4,4a,10b-hexahydrobenzo[c][1,6]naphthyridine hydrochloride] |  | 7.26 | 6.52
COc1ccc(Cn2nnc(-c3ccc(C4=N[C@H]5CCN(C)C[C@H]5c5cc(OC)c(OC)cc54)cc3)n2)cc1 (single isomer, unassigned) [Compound 7, (-)-cis-8,9-Dimethoxy-2-methyl-6-[[4-[2H-2-(4-methoxybenzyl)tetrazol-5-yl]phenyl]]-1,2,3,4,4a,10b-hexahydrobenzo[c][1,6]naphthyridine hydrochloride] | 148 | 6.74 | 
CCOc1cc2c(cc1OCC)[C@@H]1CN(C)CC[C@@H]1N=C2c1ccc(-c2nnn(CC3CCCCC3)n2)cc1 (single isomer, unassigned) [Compound 8, (-)-cis-8,9-Diethoxy-2-methyl-6-[4-(2H-2-cyclohexylmethyltetrazol-5-yl)phenyl]-1,2,3,4,4a,10b-hexahydrobenzo[c][1,6]naphthyridine hydrochloride] | 309 | 7.64 | 
CCOc1cc2c(cc1OC)C(c1ccc(-c3nnn(CC)n3)cc1)=N[C@H]1CCN(C)C[C@@H]21 (single isomer, unassigned) [Compound 9, (-)-(cis)-9-Ethoxy-8-methoxy-2-methyl-6-[4-(2H-2-ethyltetrazol-5-yl)phenyl]-1,2,3,4,4a,10b-hexahydrobenzo[c][1.6]naphthyridine] | 148 | 7.96 | 
CCOc1cc2c(cc1OC)[C@@H]1CN(C)CC[C@@H]1N=C2c1ccc(-c2nnn(CC)n2)cc1 (single isomer, unassigned) [Compound 10, (-)-cis-8-Ethoxy-9-methoxy-2-methyl-6-[4-(2H-2-ethyltetrazol-5-yl)-phenyl]-1,2,3,4,4a,10b-hexahydrobenzo[c][1.6]naphthyridine hydrochloride] | 275 | 6.08 | 
CCOc1cc2c(cc1OCC)[C@@H]1CN(C)CC[C@@H]1N=C2c1cccc(-c2nnn(CC)n2)c1 (single isomer, unassigned) [Compound 11, (-)-cis-8,9-Diethoxy-2-methyl-6-[3-(2H-2-ethyltetrazol-5-yl)-phenyl]-1,2,3,4,4a,10b-hexahydrobenzo[c][1,6]naphthyridine hydrochloride] |  | 7.40 | 5.66
CCOc1cc2c(cc1OC)C(c1cccc(-c3nnn(CC)n3)c1)=N[C@H]1CCN(C)C[C@@H]21 (single isomer, unassigned) [Compound 12, (-)-cis-9-Ethoxy-8-methoxy-2-methyl-6-[3-(2H-2-ethyltetrazol-5-yl)-phenyl]-1,2,3,4,4a,10b-hexahydrobenzo[c][1.6]naphthyridine hydrochloride] | 708 | 7.82 | 
CCCCCCn1nnc(-c2ccc(C3=N[C@H]4CCN(C)C[C@H]4c4cc(OCC)c(OC)cc43)cc2)n1 (single isomer, unassigned) [Compound 15, (-)-cis-9-Ethoxy-8-methoxy-2-methyl-6-[4-(2H-2-hexyltetrazol-5-yl)-phenyl]-1,2,3,4,4a,10-hexahydrobenzo[c][1.6]naphthyridine hydrochloride] | 631 | 8.24 | 
CCCn1nnc(-c2ccc(C3=N[C@H]4CCN(C)C[C@H]4c4cc(OCC)c(OC)cc43)cc2)n1 (single isomer, unassigned) [Compound 16, (-)-cis-9-Ethoxy-8-methoxy-2-6-[4-(2H-2-propyltetrazol-5-yl)-phenyl]-1,2,3,4,4a,10b-hexahydrobenzo[c][1.6]naphthyridine hydrochloride] | 219 | 7.94 | 
CCOc1cc2c(cc1OCC)[C@@H]1CN(C)CC[C@@H]1N=C2c1ccc(-c2nn[nH]n2)cc1 (single isomer, unassigned) [Compound 17, (-)-cis-8.9-Diethoxy-2-methyl-6-[4-(1H- and 2H-2-tetrazol-5-yl)-phenyl]-1,2,3,4,4a,10b-hexahydrobenzo[c][1.6]naphthyridine] | 195 | 7.44 | 
CCOc1cc2c(cc1OC)C(c1ccc(-c3nn[nH]n3)cc1)=N[C@H]1CCN(C)C[C@@H]21 (single isomer, unassigned) [Compound 18, (-)-cis-9-Ethoxy-8-methoxy-2-methyl-6-[4-(1H- and 2H-2-tetrazol-5-yl)-phenyl]-1,2,3,4,4a,10b-hexahydrobenzo[c][1.6]naphthyridine] | 145 | 7.81 | 
